In patent US9708314B2, “Heterocyclic amide compound” (NISSAN CHEMICAL INDUSTRIES, LTD., priority 2013, dated 2017):

Key:
Assay type in all cases: in vivo
[1] = test system: Monochoria vaginalis; assay: Test Example 1: herbicidal activity, application before weed generation in submerged conditions; details: Seventeenth Table; for C: Monochoria vaginalis (herbicidal effect grade): Application herbicide amount 320 g/ha
Outline: (§1)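 Pre-emergence application to water surface of submerged pots (4 cm depth, alluvial soil) on sowing day, with 2.5-leaf rice transplanted; emulsion diluted to g/ha rates. Grown in greenhouse at 25–30 °C; 0–5 herbicidal/crop-effect score after three weeks.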

[2] = test system: Scirpus juncoides; assay: as above; details: Seventeenth Table; for B: Scirpus juncoides (herbicidal effect grade): Application herbicide amount 320 g/ha
Outline: as §1

[3] = test system: Echinochloa oryzacola Vasing.; assay: as above; details: Seventeenth Table; for A: Echinochloa oryzicola Vasing. (herbicidal effect grade): Application herbicide amount 320 g/ha
Outline: as §1

[4] = test system: Glycine max; assay: Test Example 4: effect on crop by application to foliage (diluvial soil, plastic box); details: application to foliage, 320 g/ha
Outline: (§2)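 Plants were grown in sterilized diluvial soil in a greenhouse at 25-30° C for 14 days, then sprayed on stems and leaves with water-diluted emulsion formulation at set rates in g/ha. Weed control and crop injury were scored 3 weeks after treatment on a 0-5 herbicidal-ratio scale, from 0 (≤5%) to 5 (≥90%).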

[5] = test system: Beta vulgaris ssp. vulgaris; assay: as above; details: application to foliage, 320 g/ha
Outline: as §2

[6] = test system: Triticum aestivum; assay: as above; details: application to foliage, 320 g/ha
Outline: as §2

[7] = test system: Zea mays; assay: as above; details: application to foliage, 320 g/ha
Outline: as §2

[8] = test system: Brassica campestris L.; assay: as above; details: application to foliage, 320 g/ha
Outline: as §2

[9] = test system: directly sowed Oryza sativa; assay: as above; details: application to foliage, 320 g/ha
Outline: as §2

[10] = application herbicide amount 320 g/ha

SMILES	C: Monochoria vaginalis (herbicidal effect grade) [1]	B: Scirpus juncoides (herbicidal effect grade) [2]	A: Echinochloa oryzicola Vasing. (herbicidal effect grade) [3]	effect on crop, c (Glycine max) [4]	effect on crop, f (Beta vulgaris ssp. vulgaris) [5]	effect on crop, e (Triticum aestivum) [6]	effect on crop, b (Zea mays) [7]	effect on crop, g (Brassica campestris L.) [8]	effect on crop, d (directly sowed Oryza sativa) [9]	C (Monochoria vaginalis) herbicidal ratio grade [1, 10]	B (Scirpus juncoides) herbicidal ratio grade [2, 10]	A (Echinochloa oryzicola Vasing.) herbicidal ratio grade [3, 10]
COc1ccc(CSc2nnc3c(C(=O)Nc4nnnn4C)ccc(C(F)(F)F)n23)cc1 [2-077]	3 (Herbicidal ratio of 40% or more and less than 70%)	3 (Herbicidal ratio of 40% or more and less than 70%)	5 (Herbicidal ratio of 90% or more (almost completely withered))	0 (Herbicidal ratio of 5% or less (almost no effect))	5 (Herbicidal ratio of 90% or more (almost completely withered))	0 (Herbicidal ratio of 5% or less (almost no effect))	0 (Herbicidal ratio of 5% or less (almost no effect))	2 (Herbicidal ratio of 20% or more and less than 40%)	2 (Herbicidal ratio of 20% or more and less than 40%)			
Cn1nnnc1NC(=O)c1ccc(C(F)(F)F)n2c(N3CCSCC3)nnc12 [2-078]	2 (Herbicidal ratio of 20% or more and less than 40%)	4 (Herbicidal ratio of 70% or more and less than 90%)	5 (Herbicidal ratio of 90% or more (almost completely withered))	1 (Herbicidal ratio of 5% or more and less than 20%)	5 (Herbicidal ratio of 90% or more (almost completely withered))	2 (Herbicidal ratio of 20% or more and less than 40%)	4 (Herbicidal ratio of 70% or more and less than 90%)	5 (Herbicidal ratio of 90% or more (almost completely withered))	4 (Herbicidal ratio of 70% or more and less than 90%)			
COCCN(C)c1nnc2c(C(=O)Nc3nnnn3C)ccc(C(F)(F)F)n12 [2-079]	5 (Herbicidal ratio of 90% or more (almost completely withered))	5 (Herbicidal ratio of 90% or more (almost completely withered))	5 (Herbicidal ratio of 90% or more (almost completely withered))	2 (Herbicidal ratio of 20% or more and less than 40%)	5 (Herbicidal ratio of 90% or more (almost completely withered))	2 (Herbicidal ratio of 20% or more and less than 40%)	5 (Herbicidal ratio of 90% or more (almost completely withered))	5 (Herbicidal ratio of 90% or more (almost completely withered))	4 (Herbicidal ratio of 70% or more and less than 90%)			
CSCCNc1nnc2c(C(=O)Nc3nnnn3C)ccc(C(F)(F)F)n12 [2-080]	0 (Herbicidal ratio of 5% or less (almost no effect))	0 (Herbicidal ratio of 5% or less (almost no effect))	3 (Herbicidal ratio of 40% or more and less than 70%)	0 (Herbicidal ratio of 5% or less (almost no effect))	5 (Herbicidal ratio of 90% or more (almost completely withered))	0 (Herbicidal ratio of 5% or less (almost no effect))	3 (Herbicidal ratio of 40% or more and less than 70%)	5 (Herbicidal ratio of 90% or more (almost completely withered))	4 (Herbicidal ratio of 70% or more and less than 90%)			
CCCn1nnnc1NC(=O)c1ccc(C(F)(F)F)n2c(C(C)C)nnc12 [2-090]	5 (Herbicidal ratio of 90% or more (almost completely withered))	5 (Herbicidal ratio of 90% or more (almost completely withered))	5 (Herbicidal ratio of 90% or more (almost completely withered))	1 (Herbicidal ratio of 5% or more and less than 20%)	5 (Herbicidal ratio of 90% or more (almost completely withered))	3 (Herbicidal ratio of 40% or more and less than 70%)	3 (Herbicidal ratio of 40% or more and less than 70%)	4 (Herbicidal ratio of 70% or more and less than 90%)	3 (Herbicidal ratio of 40% or more and less than 70%)			
C=CCn1nnnc1NC(=O)c1ccc(C(F)(F)F)n2c(C(C)C)nnc12 [2-091]	5 (Herbicidal ratio of 90% or more (almost completely withered))	5 (Herbicidal ratio of 90% or more (almost completely withered))	5 (Herbicidal ratio of 90% or more (almost completely withered))	0 (Herbicidal ratio of 5% or less (almost no effect))	5 (Herbicidal ratio of 90% or more (almost completely withered))	3 (Herbicidal ratio of 40% or more and less than 70%)	2 (Herbicidal ratio of 20% or more and less than 40%)	5 (Herbicidal ratio of 90% or more (almost completely withered))	3 (Herbicidal ratio of 40% or more and less than 70%)			
CC(C)c1nnc2c(C(=O)Nc3nnnn3Cc3ccc(Cl)cc3)ccc(C(F)(F)F)n12 [2-093]	4 (Herbicidal ratio of 70% or more and less than 90%)	5 (Herbicidal ratio of 90% or more (almost completely withered))	5 (Herbicidal ratio of 90% or more (almost completely withered))	0 (Herbicidal ratio of 5% or less (almost no effect))	2 (Herbicidal ratio of 20% or more and less than 40%)	1 (Herbicidal ratio of 5% or more and less than 20%)	0 (Herbicidal ratio of 5% or less (almost no effect))	1 (Herbicidal ratio of 5% or more and less than 20%)	3 (Herbicidal ratio of 40% or more and less than 70%)			
C#CCN(C)c1nnc2c(C(=O)Nc3nnnn3C)ccc(C(F)(F)F)n12 [2-094]	5 (Herbicidal ratio of 90% or more (almost completely withered))	5 (Herbicidal ratio of 90% or more (almost completely withered))	5 (Herbicidal ratio of 90% or more (almost completely withered))	1 (Herbicidal ratio of 5% or more and less than 20%)	5 (Herbicidal ratio of 90% or more (almost completely withered))	1 (Herbicidal ratio of 5% or more and less than 20%)	3 (Herbicidal ratio of 40% or more and less than 70%)	4 (Herbicidal ratio of 70% or more and less than 90%)	4 (Herbicidal ratio of 70% or more and less than 90%)			
CN(CCC#N)c1nnc2c(C(=O)Nc3nnnn3C)ccc(C(F)(F)F)n12 [2-095]	5 (Herbicidal ratio of 90% or more (almost completely withered))	5 (Herbicidal ratio of 90% or more (almost completely withered))	5 (Herbicidal ratio of 90% or more (almost completely withered))	1 (Herbicidal ratio of 5% or more and less than 20%)	5 (Herbicidal ratio of 90% or more (almost completely withered))	3 (Herbicidal ratio of 40% or more and less than 70%)	5 (Herbicidal ratio of 90% or more (almost completely withered))	5 (Herbicidal ratio of 90% or more (almost completely withered))	5 (Herbicidal ratio of 90% or more (almost completely withered))			
COc1ccc(N(C)c2nnc3c(C(=O)Nc4nnnn4C)ccc(C(F)(F)F)n23)cc1 [2-099]				0 (Herbicidal ratio of 5% or less (almost no effect))	5 (Herbicidal ratio of 90% or more (almost completely withered))	0 (Herbicidal ratio of 5% or less (almost no effect))	3 (Herbicidal ratio of 40% or more and less than 70%)	4 (Herbicidal ratio of 70% or more and less than 90%)	4 (Herbicidal ratio of 70% or more and less than 90%)	5 (Herbicidal ratio of 90% or more (almost completely withered))	4 (Herbicidal ratio of 70% or more and less than 90%)	5 (Herbicidal ratio of 90% or more (almost completely withered))
